Test results as given in ChEMBL document CHEMBL1201862, “PubChem BioAssay data set” (2004).
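Cells were grown in 96-well plates and exposed to each compound for 48 hours at five concentrations; endpoints were interpolated linearly between bracketing concentrations, or set to the highest concentration if not reached. GI50: concentration for 50% inhibition of growth.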 Active and inactive are the calls of the source. Cut-off read from the data, not from the text of the source: active = GI50 up to about 1.1 µM and inactive = higher.

Experiments:
Assay in all cases: inhibition of tumour cell growth, NCI panel, 48 h
[1] = test system: COLO 205
[2] = test system: SNB-75
[3] = test system: HCT-116
[4] = test system: OVCAR-3
[5] = test system: SR
[6] = test system: HOP-92
[7] = test system: Malme-3M
[8] = test system: M14
[9] = test system: MOLT-4
[10] = test system: ACHN
[11] = test system: HT-29
[12] = test system: BT-549
[13] = test system: SK-MEL-5
[14] = test system: IGROV-1
[15] = test system: NCI-H23
[16] = test system: SF-295
[17] = test system: HL-60
[18] = test system: KM12
[19] = test system: SK-MEL-28
[20] = test system: MDA-MB-435

`O=S(=O)(O)c1cc(O)c2c(/N=C\c3ccccc3O)cc(S(=O)(=O)O)cc2c1` was tested, and the GI50 [1] was > 100 µM (inactive), the GI50 [2] was 93.5 µM (inactive) and the GI50 [3] was > 100 µM (inactive). The GI50 [4] was > 100 µM (inactive), the GI50 [5] was > 100 µM (inactive) and the GI50 [6] was > 100 µM (inactive). The GI50 [7] was > 100 µM (inactive), the GI50 [8] was > 100 µM (inactive) and the GI50 [9] was 9.57 µM (inactive). The GI50 [10] was > 100 µM (inactive), the GI50 [11] was > 100 µM (inactive) and the GI50 [12] was > 100 µM (inactive). The GI50 [13] was > 100 µM (inactive), the GI50 [14] was > 100 µM (inactive) and the GI50 [15] was > 100 µM (inactive). The GI50 [16] was > 100 µM (inactive), the GI50 [17] was 57.9 µM (inactive) and the GI50 [18] was > 100 µM (inactive). The GI50 [19] was > 100 µM (inactive) and the GI50 [20] was > 100 µM (inactive).
With `CC(C)Cn1cnc2c(Cl)nc3ccccc3c21` the GI50 [1] was 33.7 µM (inactive), the GI50 [2] was 18.7 µM (inactive) and the GI50 [3] was 34.4 µM (inactive). For the same compound, the GI50 [4] was 41.3 µM (inactive), the GI50 [5] was 25.6 µM (inactive) and the GI50 [6] was 21.8 µM (inactive). For the same compound, the GI50 [7] was > 100 µM (inactive), the GI50 [8] was > 100 µM (inactive) and the GI50 [9] was 34.3 µM (inactive). The GI50 [10] was 30.2 µM (inactive), the GI50 [11] was 46 µM (inactive) and the GI50 [12] was 51.5 µM (inactive). For the same compound, the GI50 [13] was 12.2 µM (inactive), the GI50 [14] was 31.9 µM (inactive) and the GI50 [15] was 59.3 µM (inactive). For the same compound, the GI50 [16] was 72.6 µM (inactive), the GI50 [17] was 26.7 µM (inactive) and the GI50 [18] was 37.8 µM (inactive). The GI50 [19] was > 100 µM (inactive) and the GI50 [20] was 53.2 µM (inactive).
With `CCCCCC/C=C\CCCCCCCCCC1=C(CN2CCN(C)CC2)C(=O)C=C(OC)C1=O` the GI50 [1] was 1.71 µM (inactive), the GI50 [2] was 1.62 µM (inactive) and the GI50 [3] was 2.14 µM (inactive). The GI50 [4] was 6.76 µM (inactive), the GI50 [5] was 0.0578 µM (active) and the GI50 [6] was 2.64 µM (inactive). The GI50 [7] was 2.79 µM (inactive), the GI50 [8] was 2.51 µM (inactive) and the GI50 [9] was 0.353 µM (active). The GI50 [10] was 3.28 µM (inactive), the GI50 [11] was 7.28 µM (inactive) and the GI50 [12] was 3.87 µM (inactive). The GI50 [13] was 6.75 µM (inactive), the GI50 [14] was 5.93 µM (inactive) and the GI50 [15] was 4.57 µM (inactive). The GI50 [16] was 6.3 µM (inactive), the GI50 [17] was 0.881 µM (active) and the GI50 [18] was 6.47 µM (inactive). The GI50 [19] was 13.6 µM (inactive) and the GI50 [20] was 8.65 µM (inactive).
For `CC(C)Oc1c(N(Cc2ccccc2)c2ccccc2C2SCCCS2)c(=O)c1=O`, the GI50 [1] was 3.07 µM (inactive), the GI50 [2] was 2.51 µM (inactive) and the GI50 [3] was 4.05 µM (inactive). The GI50 [4] was 2.33 µM (inactive), the GI50 [5] was 2.79 µM (inactive) and the GI50 [6] was 6.81 µM (inactive). The GI50 [7] was 2.9 µM (inactive), the GI50 [8] was 3.65 µM (inactive) and the GI50 [9] was 3.63 µM (inactive). The GI50 [10] was 5.81 µM (inactive), the GI50 [11] was 2.52 µM (inactive) and the GI50 [12] was 6.38 µM (inactive). The GI50 [13] was 4.32 µM (inactive), the GI50 [14] was 3.32 µM (inactive) and the GI50 [15] was 3.97 µM (inactive). For the same compound, the GI50 [16] was 2.2 µM (inactive), the GI50 [17] was 3.98 µM (inactive) and the GI50 [18] was 3.21 µM (inactive). For the same compound, the GI50 [19] was 11.2 µM (inactive) and the GI50 [20] was 2.74 µM (inactive).
In the case of `CC1OC(OC2C(O[C@H]3CC[C@@]4(C)C(=CC[C@H]5[C@@H]6C[C@@H]7O[C@]8(CC[C@@H](C)CO8)[C@@H](C)[C@@H]7[C@@]6(C)CC[C@@H]54)C3)OC(CO)C(OC3OC(CO)C(O)C3O)C2O)C(O)C(O)C1O` (stereo not given in full), the GI50 [1] is reported as 0.6 µM (active), the GI50 [2] is reported as 0.724 µM (active) and the GI50 [3] is reported as 0.851 µM (active). The GI50 [4] was 0.918 µM (active), the GI50 [5] was 0.695 µM (active) and the GI50 [6] was 1.01 µM (active). For the same compound, the GI50 [7] was 0.877 µM (active), the GI50 [8] was 0.745 µM (active) and the GI50 [9] was 0.785 µM (active). The GI50 [10] was 0.855 µM (active), the GI50 [11] was 0.805 µM (active) and the GI50 [12] was 0.975 µM (active). For the same compound, the GI50 [13] was 0.746 µM (active), the GI50 [14] was 0.847 µM (active) and the GI50 [15] was 0.836 µM (active). The GI50 [16] was 0.745 µM (active), the GI50 [17] was 0.964 µM (active) and the GI50 [18] was 0.912 µM (active). For the same compound, the GI50 [19] was 0.605 µM (active) and the GI50 [20] was 0.869 µM (active).
